Source: the NIST ThermoML archive (doi:10.1016/j.jct.2009.07.002)

Assay: isobaric coefficient of expansion
Settings: Liquid, DSC with Pressure Shift

CCCC(C)O (centres undefined) [pentan-2-ol]
isobaric coefficient of expansion
Settings | 278.15 K | 288.15 K | 298.15 K | 308.15 K | 318.15 K | 328.15 K | 338.15 K | 348.15 K
5000 kPa | 0.000883 1/K | 0.000922 1/K | 0.000961 1/K | 0.00101 1/K | 0.00106 1/K | 0.0011 1/K | 0.00114 1/K | 0.00119 1/K
10000 kPa | 0.000858 1/K | 0.000896 1/K | 0.000935 1/K | 0.000983 1/K | 0.00103 1/K | 0.00107 1/K | 0.00111 1/K | 0.00115 1/K
15000 kPa | 0.00084 1/K | 0.00088 1/K | 0.000914 1/K | 0.000956 1/K | 0.001 1/K | 0.00103 1/K | 0.00107 1/K | 0.00111 1/K
20000 kPa | 0.000827 1/K | 0.000857 1/K | 0.00089 1/K | 0.000929 1/K | 0.000971 1/K | 0.00101 1/K | 0.00105 1/K | 0.00108 1/K
25000 kPa | 0.000801 1/K | 0.000842 1/K | 0.000872 1/K | 0.000909 1/K | 0.000946 1/K | 0.000983 1/K | 0.00102 1/K | 0.00105 1/K
30000 kPa | 0.000789 1/K | 0.000823 1/K | 0.000851 1/K | 0.000889 1/K | 0.000923 1/K | 0.000957 1/K | 0.000991 1/K | 0.00102 1/K
35000 kPa | 0.000773 1/K | 0.000805 1/K | 0.000834 1/K | 0.000868 1/K | 0.000902 1/K | 0.000933 1/K | 0.000967 1/K | 0.000995 1/K
40000 kPa | 0.000756 1/K | 0.000788 1/K | 0.00081 1/K | 0.00085 1/K | 0.000879 1/K | 0.000914 1/K | 0.000941 1/K | 0.00097 1/K
45000 kPa | 0.000745 1/K | 0.000775 1/K | 0.000799 1/K | 0.00083 1/K | 0.00086 1/K | 0.000889 1/K | 0.00092 1/K | 0.000946 1/K
50000 kPa | 0.00073 1/K | 0.000758 1/K | 0.000784 1/K | 0.000814 1/K | 0.000841 1/K | 0.000872 1/K | 0.000899 1/K | 0.000923 1/K
55000 kPa | 0.000719 1/K | 0.000745 1/K | 0.000766 1/K | 0.000793 1/K | 0.000819 1/K | 0.000844 1/K | 0.000866 1/K | 0.000888 1/K

CCCCCN [1-pentanamine]
isobaric coefficient of expansion
Settings | 278.15 K | 288.15 K | 298.15 K | 308.15 K | 318.15 K | 328.15 K | 338.15 K | 348.15 K
5000 kPa | 0.00109 1/K | 0.00111 1/K | 0.00112 1/K | 0.00114 1/K | 0.00116 1/K | 0.00118 1/K | 0.0012 1/K | 0.00123 1/K
10000 kPa | 0.00107 1/K | 0.00108 1/K | 0.00109 1/K | 0.00111 1/K | 0.00112 1/K | 0.00114 1/K | 0.00116 1/K | 0.00118 1/K
15000 kPa | 0.00105 1/K | 0.00106 1/K | 0.00107 1/K | 0.00108 1/K | 0.00109 1/K | 0.0011 1/K | 0.00112 1/K | 0.00113 1/K
20000 kPa | 0.00102 1/K | 0.00104 1/K | 0.00104 1/K | 0.00106 1/K | 0.00106 1/K | 0.00107 1/K | 0.00108 1/K | 0.0011 1/K
25000 kPa | 0.00101 1/K | 0.00102 1/K | 0.00102 1/K | 0.00103 1/K | 0.00104 1/K | 0.00104 1/K | 0.00105 1/K | 0.00106 1/K
30000 kPa | 0.000988 1/K | 0.000994 1/K | 0.001 1/K | 0.00101 1/K | 0.00101 1/K | 0.00102 1/K | 0.00102 1/K | 0.00103 1/K
35000 kPa | 0.000969 1/K | 0.000973 1/K | 0.000981 1/K | 0.000988 1/K | 0.000989 1/K | 0.000989 1/K | 0.000993 1/K | 0.000999 1/K
40000 kPa | 0.000954 1/K | 0.000958 1/K | 0.000966 1/K | 0.000968 1/K | 0.000967 1/K | 0.000971 1/K | 0.000972 1/K | 0.000972 1/K
45000 kPa | 0.000938 1/K | 0.000937 1/K | 0.000944 1/K | 0.000949 1/K | 0.000947 1/K | 0.000949 1/K | 0.000951 1/K | 0.000954 1/K
50000 kPa | 0.000921 1/K | 0.000925 1/K | 0.000927 1/K | 0.000929 1/K | 0.000928 1/K | 0.000931 1/K | 0.00093 1/K | 0.00093 1/K
55000 kPa | 0.000895 1/K | 0.0009 1/K | 0.000894 1/K | 0.000898 1/K | 0.000898 1/K | 0.000898 1/K | 0.000899 1/K | 0.000891 1/K

CCO [ethanol]
isobaric coefficient of expansion
Settings | 278.15 K | 288.15 K | 298.15 K | 308.15 K | 318.15 K | 328.15 K | 338.15 K | 348.15 K
5000 kPa | 0.00102 1/K | 0.00103 1/K | 0.00106 1/K | 0.00109 1/K | 0.00112 1/K | 0.00116 1/K | 0.00121 1/K | 0.00127 1/K
10000 kPa | 0.000988 1/K | 0.00101 1/K | 0.00103 1/K | 0.00105 1/K | 0.00109 1/K | 0.00112 1/K | 0.00116 1/K | 0.00122 1/K
15000 kPa | 0.000966 1/K | 0.000983 1/K | 0.001 1/K | 0.00102 1/K | 0.00105 1/K | 0.00108 1/K | 0.00112 1/K | 0.00116 1/K
20000 kPa | 0.000948 1/K | 0.000956 1/K | 0.000973 1/K | 0.000994 1/K | 0.00102 1/K | 0.00105 1/K | 0.00108 1/K | 0.00112 1/K
25000 kPa | 0.000928 1/K | 0.000936 1/K | 0.000952 1/K | 0.000971 1/K | 0.000988 1/K | 0.00102 1/K | 0.00105 1/K | 0.00108 1/K
30000 kPa | 0.000908 1/K | 0.000918 1/K | 0.000929 1/K | 0.000944 1/K | 0.000966 1/K | 0.000988 1/K | 0.00102 1/K | 0.00105 1/K
35000 kPa | 0.000892 1/K | 0.000899 1/K | 0.000908 1/K | 0.000921 1/K | 0.000942 1/K | 0.000962 1/K | 0.000988 1/K | 0.00102 1/K
40000 kPa | 0.000882 1/K | 0.000875 1/K | 0.000887 1/K | 0.000903 1/K | 0.000918 1/K | 0.000936 1/K | 0.000958 1/K | 0.000984 1/K
45000 kPa | 0.000863 1/K | 0.000866 1/K | 0.000871 1/K | 0.000883 1/K | 0.000898 1/K | 0.000912 1/K | 0.000935 1/K | 0.000959 1/K
50000 kPa | 0.000852 1/K | 0.00085 1/K | 0.000853 1/K | 0.000865 1/K | 0.000882 1/K | 0.000894 1/K | 0.000911 1/K | 0.000938 1/K
55000 kPa | 0.000839 1/K | 0.000831 1/K | 0.000839 1/K | 0.000848 1/K | 0.000863 1/K | 0.000877 1/K | 0.000891 1/K | 0.000915 1/K
